Source: US9446026B2, “Ocular formulations for drug-delivery to the posterior segment of the eye” (PanOptica, Inc., priority 2013, dated 2016)
Like-named read-outs stand apart in the source and are kept apart here.

Tests used:
[1] = pKa (water) of Compound-I drug substance; type: physicochemical
Source text: (§1) The embodiments provide three formulations of Compound-I or its free base—the Formula II compound.

[2] = Solubility of Compound-I drug substance; type: physicochemical
Source text: as §1

[3] = target: recombinant FGFR-2 tyrosine kinase (Homo sapiens (Human), UniProt P21802); assay: Inhibition of recombinant FGFR-2 tyrosine kinase using exogenous substrate; type: biochemical
recombinant FGFR-2 tyrosine kinase, sequence (P21802 22-821): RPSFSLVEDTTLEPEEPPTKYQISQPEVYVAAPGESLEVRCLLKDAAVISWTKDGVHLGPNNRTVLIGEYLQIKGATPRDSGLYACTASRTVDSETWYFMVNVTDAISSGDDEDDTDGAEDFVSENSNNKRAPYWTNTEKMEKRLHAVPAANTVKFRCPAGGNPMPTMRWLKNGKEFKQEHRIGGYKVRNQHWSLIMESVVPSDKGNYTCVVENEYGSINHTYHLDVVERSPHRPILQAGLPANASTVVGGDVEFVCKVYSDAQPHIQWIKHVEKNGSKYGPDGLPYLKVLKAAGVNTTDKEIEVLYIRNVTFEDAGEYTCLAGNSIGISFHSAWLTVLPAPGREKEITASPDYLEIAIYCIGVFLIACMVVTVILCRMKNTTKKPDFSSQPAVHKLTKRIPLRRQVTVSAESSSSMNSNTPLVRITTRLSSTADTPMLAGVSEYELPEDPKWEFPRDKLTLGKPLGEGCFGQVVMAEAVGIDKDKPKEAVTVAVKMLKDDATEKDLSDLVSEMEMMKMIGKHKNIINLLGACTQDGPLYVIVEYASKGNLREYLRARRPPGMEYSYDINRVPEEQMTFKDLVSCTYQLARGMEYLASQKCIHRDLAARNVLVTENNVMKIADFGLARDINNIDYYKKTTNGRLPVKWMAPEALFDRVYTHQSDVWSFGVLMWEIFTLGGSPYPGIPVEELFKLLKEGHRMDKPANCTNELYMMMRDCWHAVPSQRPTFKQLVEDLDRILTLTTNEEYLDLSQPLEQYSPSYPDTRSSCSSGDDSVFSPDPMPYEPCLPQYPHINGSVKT

FGFR-2 = FGFR-2 (Homo sapiens (Human), UniProt P21802); assay: In vitro inhibition of tyrosine kinases; type: biochemical
FGFR-2, sequence (P21802 22-821): as above

FGFR-4 = FGFR-4 (Homo sapiens (Human), UniProt P22455); assay: In vitro inhibition of tyrosine kinases; type: biochemical
FGFR-4, sequence (P22455 22-802): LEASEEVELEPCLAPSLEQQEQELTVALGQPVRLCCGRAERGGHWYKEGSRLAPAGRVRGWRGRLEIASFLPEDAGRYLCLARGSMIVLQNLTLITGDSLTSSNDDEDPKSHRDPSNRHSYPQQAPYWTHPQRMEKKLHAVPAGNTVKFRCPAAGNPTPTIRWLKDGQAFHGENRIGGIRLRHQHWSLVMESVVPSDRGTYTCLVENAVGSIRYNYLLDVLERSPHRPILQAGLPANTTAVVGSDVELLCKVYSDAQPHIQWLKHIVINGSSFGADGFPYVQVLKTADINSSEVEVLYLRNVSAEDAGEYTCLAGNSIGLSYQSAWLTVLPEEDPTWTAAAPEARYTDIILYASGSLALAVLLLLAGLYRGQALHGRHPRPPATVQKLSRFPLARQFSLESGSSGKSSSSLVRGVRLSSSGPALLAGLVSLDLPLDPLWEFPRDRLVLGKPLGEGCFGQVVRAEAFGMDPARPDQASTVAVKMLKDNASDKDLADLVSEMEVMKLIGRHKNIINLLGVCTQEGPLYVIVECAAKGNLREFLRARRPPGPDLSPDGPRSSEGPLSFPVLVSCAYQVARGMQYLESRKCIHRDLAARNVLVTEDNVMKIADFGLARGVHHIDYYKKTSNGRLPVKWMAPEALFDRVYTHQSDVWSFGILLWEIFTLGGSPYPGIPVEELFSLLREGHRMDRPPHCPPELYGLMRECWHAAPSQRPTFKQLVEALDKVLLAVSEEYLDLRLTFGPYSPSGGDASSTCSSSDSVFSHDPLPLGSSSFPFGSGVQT

KDR (VEGFR-2) = KDR (VEGFR-2) (Homo sapiens (Human), UniProt P35968); assay: In vitro inhibition of tyrosine kinases; type: biochemical; conditions: 300 nM (170.67 ng/mL)
KDR (VEGFR-2), sequence (P35968 20-1356): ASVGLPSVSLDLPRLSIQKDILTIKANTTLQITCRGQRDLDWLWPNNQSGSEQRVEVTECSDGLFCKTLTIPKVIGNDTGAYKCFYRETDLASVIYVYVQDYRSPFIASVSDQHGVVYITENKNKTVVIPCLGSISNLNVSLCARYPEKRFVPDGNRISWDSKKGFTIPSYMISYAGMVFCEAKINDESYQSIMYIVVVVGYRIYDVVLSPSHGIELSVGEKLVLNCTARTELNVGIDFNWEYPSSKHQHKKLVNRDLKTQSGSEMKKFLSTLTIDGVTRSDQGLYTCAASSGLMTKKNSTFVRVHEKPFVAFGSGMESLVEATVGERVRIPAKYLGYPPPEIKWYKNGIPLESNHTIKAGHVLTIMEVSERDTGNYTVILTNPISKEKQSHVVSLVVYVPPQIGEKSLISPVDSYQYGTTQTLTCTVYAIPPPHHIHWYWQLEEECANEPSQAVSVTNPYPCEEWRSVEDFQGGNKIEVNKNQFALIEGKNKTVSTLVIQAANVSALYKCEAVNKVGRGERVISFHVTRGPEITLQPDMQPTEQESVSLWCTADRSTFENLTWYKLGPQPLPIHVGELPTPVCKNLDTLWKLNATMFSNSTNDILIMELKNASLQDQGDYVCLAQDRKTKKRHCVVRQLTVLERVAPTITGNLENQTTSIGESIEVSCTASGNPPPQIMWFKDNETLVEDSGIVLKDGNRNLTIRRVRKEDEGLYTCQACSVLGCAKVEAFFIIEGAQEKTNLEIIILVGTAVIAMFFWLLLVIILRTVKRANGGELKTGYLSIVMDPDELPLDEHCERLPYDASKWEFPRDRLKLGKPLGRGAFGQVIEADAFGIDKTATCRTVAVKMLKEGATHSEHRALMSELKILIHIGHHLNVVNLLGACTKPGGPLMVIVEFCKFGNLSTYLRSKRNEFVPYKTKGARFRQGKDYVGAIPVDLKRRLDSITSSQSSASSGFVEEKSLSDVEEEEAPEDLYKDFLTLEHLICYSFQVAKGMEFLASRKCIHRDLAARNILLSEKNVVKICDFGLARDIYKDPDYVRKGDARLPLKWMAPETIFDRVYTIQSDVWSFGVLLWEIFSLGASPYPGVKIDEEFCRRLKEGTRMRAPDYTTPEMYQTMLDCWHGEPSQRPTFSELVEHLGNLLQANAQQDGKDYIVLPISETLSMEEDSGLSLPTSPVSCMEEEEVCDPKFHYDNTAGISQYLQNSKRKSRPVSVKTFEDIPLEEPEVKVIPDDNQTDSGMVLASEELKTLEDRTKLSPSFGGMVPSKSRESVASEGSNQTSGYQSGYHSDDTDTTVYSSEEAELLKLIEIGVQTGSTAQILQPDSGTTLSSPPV

[4] = PK with topical ocular Compound-I in sodium phosphate-based Gel Drop; type: in vivo; conditions: Dutch-belted rabbits
Source text: The Gel Drop of Compound-I was applied to eyes of Dutch-belted rabbits.
The Gel Drop formulations (listed in Table 6) differed in several aspects, such as API concentration, sodium phosphate concentration, presence or absence of tonicity (glycerin) or preservative (benzalkoniumchloride/BAK) agents, solubilizing surfactants (polysorbate 80, tyloxapol, and/or poloxamer), and pH.

[5] = 5-day PK with topical ocular Compound-I in cyclodextrin-based solutions (Example 6); type: in vivo; conditions: HPβCD solutions, Dutch-Belted rabbits, q.d.; 24 hr after first daily dose on day 4 (Groups 5b, 6b); LLOQ 0.0218 μM
Protocol: All doses were administered with ±1 hour of the scheduled dose time, except on day 1 for Groups 1, 4, and 10. The first dose on day 1 was administered at 12:00 PM, and the second dose (for Groups 1 and 10) was administered approximately 4 hours after. This was due to delayed arrival of formulations. All other dosing for these groups was as scheduled. On day 1, Groups 4-8, and 11-12 received one dose (q.d.) for four (4) days. On days 1 through 4, Groups 1-3, and 9-10 received b.i.d. dosing approximately 8 hours apart for four (4) days.
Ocular sampling occurred one hour following the first daily dose on day 5 for all groups, except Groups 5b and 6b, where ocular sampling occurred 24 hours after the first daily dose on day 4.
Blood samples for plasma collection were obtained just prior to scheduled euthanasia for all animals. […] Cornea, central retina, and central choroid samples from groups 1-12 were assayed. Aqueous humor, peripheral retina, and peripheral choroid samples were not assayed.

[6] = Ocular tissue concentrations, 0.3% Compound-I ophthalmic gel drop twice daily (toxicology study); type: in vivo, Dutch-Belted rabbits
[7] = Ocular tissue concentrations, 0.3% Compound-I Tris-based suspension twice daily 30 days; type: in vivo, Dutch-Belted rabbits; conditions: Dutch-Belted, rabbit, topical
[8] = Ocular toxicology: clinical ophthalmic and microscopic examinations; type: in vivo, Dutch-Belted rabbits
Source text: (§2) Retinal function was normal in all test article and vehicle treated groups during full-field electroretinograms performed in rabbits.

[9] = set-up: species or system Dutch-Belted rabbits and beagle dogs; conditions: in vivo
Source text: Animals that received topical ocular administration of the tromethamine-based suspension were able to tolerate up to higher level of the active agent concentration in the formulation, as compared to equimolar formulations of the sodium phosphate-based Gel Drop.
Overall, the combination of decreased corneal exposure and corresponding improved ocular tolerability, while simultaneously maintaining or promoting drug delivery to the posterior segment target tissues, along with improved physicochemical stability, will provide greater benefit to patients compared to the ophthalmic Gel Drop formulation.
as §2

[10] = set-up: species or system Dutch-belted rabbits; conditions: rabbit, in vivo
[11] = Solubility of Compound-I in cyclodextrin ophthalmic solution; type: physicochemical; conditions: HP-β-CD at ≥1:6 molar ratio or SBE-β-CD at ≥1:2 ratio
[12] = test system: pathologic retinal and choroidal neovascularization; assay: Topical ocular delivery in rodent models of retinal and choroidal neovascularization; type: in vivo
pathologic angiogenesis = assay: Systemic administration in murine cornea and rat growth plate models; type: in vivo
human tumor xenographs = assay: Human tumor xenographs in athymic mice; type: in vivo; conditions: systemic administration
[13] = 1- to 5-day PK with topical ocular Compound-I formulations (Example 5); conditions: Dutch Belted, rabbit, aqueous humor, Average Concentration of Compound-I, Dutch Belted rabbits, topical ocular q.d. or b.i.d., 24 hr post-dose, Group per row, LLOQ 0.000903 μM
Protocol: All doses were administered within ±1 hour of the scheduled dose time. On day 1, Groups 1, 2, 4-6, 8, 10, 11, 13, 15, and 17 received one dose (q.d.) for either one (1) or four (4) days. […] Animals in Groups 18 and 19 received b.i.d dosing of vehicle only formulations for five (5) consecutive days.
Ocular sampling occurred for Group 1 at 0.5, 1, 2, 4, 8, or 24 hours post-dose relative to the day 1 dose. Ocular sampling occurred for Groups 2 and 6 at 1, 8, and 24 hours post-dose relative to the day 5 morning dose. Ocular sampling for Groups 3, 7, 8, 11, and 13 occurred at 1 and 24 hours post-dose relative to the day 5 morning dose. Ocular sampling for Groups 4, 9, 10, 12, 14, 15, 16, and 17 occurred at 1 hour post-dose relative to the day 5 morning dose. Group 5 ocular sampling occurred at 0.5, 1, 2, 4, 8, and 24 hours post-dose relative to the day 1 dose. Animals in Groups 18 and 19 were followed only by clinical observations for five (5) days.
Aqueous humor, cornea, central and peripheral retina, and central and peripheral choroid samples were collected. Aqueous humor, cornea, central retina, and central choroid samples were then assayed. Peripheral retina and peripheral choroid samples were assayed only for Groups 1-8, 12, 14, and 16 per study protocol.
Rabbit aqueous humor, cornea, central and peripheral retina, and central and peripheral choroid samples were analyzed.

[14] = 10-point titration curve (257 nM-5000 nM)
[15] = 0.3% Ophthalmic Gel Drop, Twice Daily 29 days
[16] = 0.3% ophthalmic gel drop with and without benzylalkonium chloride, twice daily, Dutch-Belted rabbits
[17] = Dutch-Belted (rabbit), beagle (dog), rabbit, dog

## Cl.NC(=O)c1c(OCc2c(F)cc(Br)cc2F)nsc1NC(=O)NCCCCN1CCCC1 [Compound-I, 3-[(4-bromo-2,6-difluorophenyl)methoxy]-5-[[[[4-(1-pyrrolidinyl)butyl]amino]carbonyl]amino]-4-isothiazolecarboxamide hydrochloride]
[1]
  pKa: 10.5
[2]; 0.1N HCl, simulated gastric fluid
  solubility: 40 µg/mL
[2]; 0.1N NaOH, aqueous buffer
  solubility: 50 µg/mL
[2]; acetonitrile, organic solvent or mixture
  solubility: 40 µg/mL
[2]; aqueous buffer, pH 7.5 (0.05M NaH2PO4)
  solubility: 1000 µg/mL
[2]; aqueous buffer, pH 9.0 (0.05m Na2HPO4)
  solubility: 700 µg/mL
[2]; deionized water, water
  solubility: 500 to 1200 µg/mL
[2]; ethanol, organic solvent or mixture
  solubility: 700 µg/mL
[2]; hexanes, organic solvent or mixture
  solubility: < 10 µg/mL
[2]; methanol, organic solvent or mixture
  solubility: 4300 µg/mL
[2]; tetrahydrofuran, organic solvent or mixture
  solubility: 20 µg/mL
[3]
  IC50: 8.79 nM
[3]; hydrochloride
  IC50, recombinant FGFR-2 tyrosine kinase: 5 ng/mL and (5) ng/mL
FGFR-2; [14]
  IC50: 3.08 nM
FGFR-2; 10-point titration curve, hydrochloride
  IC50, FGFR-2: 1.75 ng/mL and (1.75) ng/mL
FGFR-4; 10-point titration curve
  IC50, FGFR-4: (284.45) ng/mL
FGFR-4; [14]
  IC50: 500 nM
KDR (VEGFR-2)
  Mean % Inhibition at 300 nM Compound-I, KDR (VEGFR-2): completely inhibited
[4]
  Delivery of Compound-I to posterior segment tissues: dose-dependent and dose-frequency dependent
[5]
  Average Concentration, Central Retina: <LLOQ
[6]; [15]
  Central Choroid [Compound I]: 0.340 µM
  Cornea [Compound I]: 236.00 µM
[6]; [16]
  Mean ocular tissue concentration, aqueous humor: 0.0197 to 0.0395 µM
  Mean ocular tissue concentration, peripheral choroid: 2.79 to 4.10 µM
  Mean ocular tissue concentration, peripheral retina: 0.150 to 0.309 µM
[7]; aqueous humor, 0.3% Tris-based suspensions with and without benzylalkonium chloride, twice daily, 1 hour after first daily dose on day 30, read-out: Mean ocular tissue concentration, aqueous humor
  concentration at 1 h: 1.27 to 1.45 nM
[7]; central choroid, 0.3 % w/v, 0.3% Tris Suspension, Twice Daily 30 days, read-out: Central Choroid [Compound I]
  concentration at 1 h: 319 nM
[7]; central choroid, 0.3% Tris-based suspensions with and without benzylalkonium chloride, twice daily, 1 hour after first daily dose on day 30, read-out: Mean ocular tissue concentration, central choroid
  concentration at 1 h: 303 to 319 nM
[7]; central retina, 0.3% Tris-based suspensions with and without benzylalkonium chloride, twice daily, 1 hour after first daily dose on day 30, read-out: Mean ocular tissue concentration, central retina
  concentration at 1 h: 49.5 to 59.2 nM
[7]; cornea, 0.3 % w/v, 0.3% Tris Suspension, Twice Daily 30 days, read-out: Cornea [Compound I]
  concentration at 1 h: 2690 nM
[7]; cornea, 0.3% Tris-based suspensions with and without benzylalkonium chloride, twice daily, 1 hour after first daily dose on day 30, read-out: Mean ocular tissue concentration, cornea
  concentration at 1 h: 2690 to 3100 nM
[7]; peripheral choroid, 0.3% Tris-based suspensions with and without benzylalkonium chloride, twice daily, 1 hour after first daily dose on day 30, read-out: Mean ocular tissue concentration, peripheral choroid
  concentration at 1 h: 781 to 1210 nM
[7]; peripheral retina, 0.3% Tris-based suspensions with and without benzylalkonium chloride, twice daily, 1 hour after first daily dose on day 30, read-out: Mean ocular tissue concentration, peripheral retina
  concentration at 1 h: 81.9 to 86.8 nM
[8]; 0.3% w/v twice daily for 30 days
  Microscopic evaluation of eyes, Tris-based suspension: considered normal
[8]; Dutch-belted rabbits, topical ocular
  Findings attributed to test-article after 30 days of 0.6% cyclodextrin-based solution: no untoward findings
[8]; rabbit, in vivo
  Tolerability of HP-β-CD cyclodextrin-based solutions, 30 days: well tolerated
  Tolerability of Tris-based suspension formulations: well tolerated
  Tolerability of cyclodextrin-based solutions, 24 days: well-tolerated
[8]; rabbits, all test article treated groups
  Retinal function, full-field electroretinograms: normal
[9]; [17]
  Corneal exposure of ophthalmic solution lower than equimolar ophthalmic gel drops: 5 to 10 fold
  Corneal tissue exposure with ophthalmic gel drops: ≥ 100 µM
[9]
  Alterations of deeper structures of the eye or optic nerve, ophthalmic gel drops: No untoward alterations
  Clinical or histopathologic findings with ophthalmic solution: free of untoward clinical or histopathologic findings
[10]; Dutch-belted
  Reduction of corneal exposure with suspension-based and cyclodextrin formulations: 10-100 ×
[10]
  Corneal concentrations with Gel Drop compared to Tris-based suspensions: fifty-fold to hundred-fold higher
  Corneal concentrations with Gel Drop compared to cyclodextrin based solution: five-fold to fifteen-fold higher
[11]
  Compound-I dose strengths solubilised by cyclodextrin: 0.1-1.0%
[12]
  Inhibition of pathologic retinal and choroidal neovascularization: significant inhibition
Pathologic angiogenesis
  Inhibition of pathologic angiogenesis: shown to inhibit
Human tumor xenographs
  Inhibition of growth of human tumor xenographs: shown to inhibit
[13]
  concentration at 24 h: 5.18 nM
